Measured values taken from patent publication US20240317827A1, “LINEAR PEPTIDES INHIBITING CK2-MEDIATED PHOSPHORYLATION AND COMPOSITIONS COMPRISING SAME” (CENTRO DE INGENIERÍA GENÉTICA Y BIOTECNOLOGÍA, priority 2021, published 2024).
Like-named read-outs stand apart in the source and are kept apart here. Where a SMILES comes first, the peptide text is derived from it. [ ]: non-standard residue; d: D form. βAla = NCCC(=O)O

Tests used:
[1] = tested on: NCI-H125 cell line (non-small cell lung cancer); assay: cell proliferation assay, NCI-H125 line; format: cell-based
Description: The evaluation of the antiproliferative activity of polypeptides F11P13-F11P21 (SEQ ID NO: 12-SEQ ID NO: 20) was performed on the NCI-H125 cell line. […] The antiproliferative effect of the CIGB-300 peptide has been widely characterized in this line (Cirigliano S. M., et al., 2017, Cancer Cell International, 17, 42), therefore, it was selected as a positive control. Tat peptide was used as a negative control. The polypeptides were evaluated at the concentrations of 25, 50, 100 and 200 μM. The cell proliferation assay was performed by a previously described procedure (Perera Y., et al., 2012, J. Pept. Sci, 18 (4):215-23).
The 24 polypeptides identified as SEQ ID NO: 21-SEQ ID NO: 44 maintained the ability to inhibit the phosphorylation of the E7 protein of HPV-16, mediated by CK2, since phosphorylation inhibition values between 60-85% were obtained. […] Evaluation of the antiproliferative activity of synthetic polypeptides generated by positional scanning of Trp (SEQ ID NO: 21-SEQ ID NO: 44) was performed on the NCI-H125 cell line. The test was performed by the procedure previously described. (Perera Y., et al., 2012, J. Pept. Sci, 18 (4): 215-23). Precursor polypeptides (F11P19, F11P20, F11P21) and peptide CIGB-300 were included as positive controls. The polypeptides were evaluated at the concentrations of 12.5; 25; fifty; 100 and 200 μM.
The evaluation of the antiproliferative activity of synthetic polypeptides A15P35, A15P36 and A15P37 (SEQ ID NO: 46-SEQ ID NO: 48) was performed on the NCI-H125, AsPC-1, PanC-1 (pancreatic carcinoma) and OCI-AML3 (acute myeloid leukemia-3) cell lines. The test was carried out according to the procedure previously described (Perera Y, et al., 2012, J. Pept. Sci, 18 (4):215-23). […] The polypeptides A15P35, A15P36 and A15P37 were able to produce a dose-dependent effect on the proliferation of NCI-H125 cells.
Antiproliferative assays were performed on the NCI-H125, Hep2C (laryngeal carcinoma) cell lines, and on two bladder cancer lines (MGH-U3 and MGH-U4). The test was carried out according to the procedure previously described (Perera Y., et al, 2012, Pept. Sci, 18 (4):215-23).

[2] = target: T1, CK2-mediated phosphorylation of the HPV-16 E7 oncoprotein (Human papillomavirus type 16, UniProt P03129); assay: in vitro phosphorylation reaction, E7 oncoprotein (GST fusion) as substrate; format: biochemical; conditions: procedure of Example 2
T1 construct: Glutathione S-Transferase (GST); made in house; host or cells: Escherichia coli
Description: The assay to measure the effect of these peptides on the CK2-mediated phosphorylation of the HPV-16 E7 oncoprotein, was based on an in vitro phosphorylation reaction, where the E7 oncoprotein of HPV-16 expressed in Escherichia coli was used as substratum. This oncoprotein was obtained as a fusion protein to Glutathione S-Transferase. The assay was performed according to the procedure previously described. (Perea S. E., et al., 2004, Cancer Res., 64: 7127-7129). The results are shown in FIG. 1, and indicate that the peptides identified as SEQ ID NO: 1-SEQ ID NO: 9 are capable of inhibiting CK2-mediated phosphorylation of the E7 protein of HPV-16.

[3] = target: T2, E7 oncoprotein of HPV-16 expressed in Escherichia coli as a fusion protein to Glutathione S-Transferase (Human Papillomavirus (HPV)-16, UniProt P03129 1-98); assay: cell-based or functional assay
T2 sequence: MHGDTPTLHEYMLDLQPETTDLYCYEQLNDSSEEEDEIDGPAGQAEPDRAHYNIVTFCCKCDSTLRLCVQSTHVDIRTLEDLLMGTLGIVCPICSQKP

[4] = NCI-H125, Table 5, read-out: IC50
[5] = NCI-H125, read-out: IC50 (dose-effect curves)

N=C(N)NCCC[C@H](NC(=O)CN)C(=O)N[C@@H](CCCCN)C(=O)N[C@@H](CCCCN)C(=O)N[C@@H](CCCNC(=N)N)C(=O)N[C@@H](CCCNC(=N)N)C(=O)N[C@@H](CCC(N)=O)C(=O)N[C@@H](CCCNC(=N)N)C(=O)N[C@@H](CCCNC(=N)N)C(=O)N[C@@H](CCCNC(=N)N)C(=O)N1CCC[C@H]1C(=O)N1CCC[C@H]1C(=O)N[C@@H](CCC(N)=O)C(=O)NCCC(=O)N[C@@H](Cc1c[nH]c2ccccc12)C(=O)N[C@@H](Cc1ccc(O)cc1)C(=O)N[C@@H](CCCNC(=N)N)C(=O)N[C@@H](Cc1ccc(O)cc1)C(=O)N[C@@H](CCCCN)C(=O)N[C@@H](CCCNC(=N)N)C(=O)N[C@@H](CC(=O)O)C(=O)N1CCC[C@H]1C(N)=O [A14P27, GRKKRRQRRRPPQ-βA-WYRYKRDP] (H-GRKKRRQRRRPPQ[βAla]WYRYKRDP-NH2; N-terminus and C-terminus assumed)
IC50 [1, 4]: 165 µM

N=C(N)NCCC[C@H](NC(=O)CN)C(=O)N[C@@H](CCCCN)C(=O)N[C@@H](CCCCN)C(=O)N[C@@H](CCCNC(=N)N)C(=O)N[C@@H](CCCNC(=N)N)C(=O)N[C@@H](CCC(N)=O)C(=O)N[C@@H](CCCNC(=N)N)C(=O)N[C@@H](CCCNC(=N)N)C(=O)N[C@@H](CCCNC(=N)N)C(=O)N1CCC[C@H]1C(=O)N1CCC[C@H]1C(=O)N[C@@H](CCC(N)=O)C(=O)NCCC(=O)NCC(=O)N[C@@H](Cc1ccc(O)cc1)C(=O)N[C@@H](CCCNC(=N)N)C(=O)N[C@@H](Cc1ccc(O)cc1)C(=O)N[C@@H](Cc1c[nH]c2ccccc12)C(=O)N[C@@H](CCCNC(=N)N)C(=O)N[C@@H](CC(=O)O)C(=O)N1CCC[C@H]1C(N)=O [A14P31, GRKKRRQRRRPPQ-βA-GYRYWRDP] (H-GRKKRRQRRRPPQ[βAla]GYRYWRDP-NH2; N-terminus and C-terminus assumed)
IC50 [1, 4]: 135 µM

N=C(N)NCCC[C@H](NC(=O)CN)C(=O)N[C@@H](CCCCN)C(=O)N[C@@H](CCCCN)C(=O)N[C@@H](CCCNC(=N)N)C(=O)N[C@@H](CCCNC(=N)N)C(=O)N[C@@H](CCC(N)=O)C(=O)N[C@@H](CCCNC(=N)N)C(=O)N[C@@H](CCCNC(=N)N)C(=O)N[C@@H](CCCNC(=N)N)C(=O)N1CCC[C@H]1C(=O)N1CCC[C@H]1C(=O)N[C@@H](CCC(N)=O)C(=O)NCCC(=O)NCC(=O)N[C@@H](Cc1ccc(O)cc1)C(=O)N[C@@H](CCCNC(=N)N)C(=O)N[C@@H](Cc1ccc(O)cc1)C(=O)N[C@@H](CCCCN)C(=O)N[C@@H](CCCNC(=N)N)C(=O)N[C@@H](Cc1c[nH]c2ccccc12)C(=O)N1CCC[C@H]1C(N)=O [A14P33, GRKKRRQRRRPPQ-βA-GYRYKRWP] (H-GRKKRRQRRRPPQ[βAla]GYRYKRWP-NH2; N-terminus and C-terminus assumed)
IC50 [1, 4]: 124 µM

N=C(N)NCCC[C@H](NC(=O)CN)C(=O)N[C@@H](CCCCN)C(=O)N[C@@H](CCCCN)C(=O)N[C@@H](CCCNC(=N)N)C(=O)N[C@@H](CCCNC(=N)N)C(=O)N[C@@H](CCC(N)=O)C(=O)N[C@@H](CCCNC(=N)N)C(=O)N[C@@H](CCCNC(=N)N)C(=O)N[C@@H](CCCNC(=N)N)C(=O)N1CCC[C@H]1C(=O)N1CCC[C@H]1C(=O)N[C@@H](CCC(N)=O)C(=O)NCCC(=O)N[C@@H](CCCNC(=N)N)C(=O)N[C@@H](CCCCN)C(=O)N[C@@H](CCCNC(=N)N)C(=O)N[C@@H](Cc1c[nH]c2ccccc12)C(=O)N[C@@H](CCCNC(=N)N)C(=O)N[C@@H](Cc1ccc(O)cc1)C(=O)N[C@@H](CC(=O)O)C(=O)N1CCC[C@H]1C(N)=O [A14P43, GRKKRRQRRRPPQ-βA-RKRWRYDP] (H-GRKKRRQRRRPPQ[βAla]RKRWRYDP-NH2; N-terminus and C-terminus assumed)
IC50 [1, 4]: 107 µM

CC(C)C[C@H](NC(=O)[C@H](CCCNC(=N)N)NC(=O)[C@H](CCCNC(=N)N)NC(=O)[C@H](CCCCN)NC(=O)[C@H](CCCCN)NC(=O)[C@@H](NC(=O)CCNC(=O)[C@H](CCC(N)=O)NC(=O)[C@@H]1CCCN1C(=O)[C@@H]1CCCN1C(=O)[C@H](CCCNC(=N)N)NC(=O)[C@H](CCCNC(=N)N)NC(=O)[C@H](CCCNC(=N)N)NC(=O)[C@H](CCC(N)=O)NC(=O)[C@H](CCCNC(=N)N)NC(=O)[C@H](CCCNC(=N)N)NC(=O)[C@H](CCCCN)NC(=O)[C@H](CCCCN)NC(=O)[C@H](CCCNC(=N)N)NC(=O)CN)C(C)C)C(=O)N[C@@H](Cc1c[nH]c2ccccc12)C(=O)N1CCC[C@H]1C(N)=O [A14P59, GRKKRRQRRRPPQ-βA-VKKRRLWP] (H-GRKKRRQRRRPPQ[βAla]VKKRRLWP-NH2; N-terminus and C-terminus assumed)
IC50 [1, 4]: 140 µM

N=C(N)NCCC[C@H](NC(=O)CN)C(=O)N[C@@H](CCCCN)C(=O)N[C@@H](CCCCN)C(=O)N[C@@H](CCCNC(=N)N)C(=O)N[C@@H](CCCNC(=N)N)C(=O)N[C@@H](CCC(N)=O)C(=O)N[C@@H](CCCNC(=N)N)C(=O)N[C@@H](CCCNC(=N)N)C(=O)N[C@@H](CCCNC(=N)N)C(=O)N1CCC[C@H]1C(=O)N1CCC[C@H]1C(=O)N[C@@H](CCC(N)=O)C(=O)NCCC(=O)N[C@@H](CCCNC(=N)N)C(=O)N[C@@H](CCCCN)C(=O)N[C@@H](CCCNC(=N)N)C(=O)N[C@@H](CO)C(=O)N[C@@H](CCCNC(=N)N)C(=O)N[C@@H](Cc1ccc(O)cc1)C(=O)N[C@@H](CC(=O)O)C(=O)N1CCC[C@H]1C(N)=O [F11P19, GRKKRRQRRRPPQ-βA-RKRSRYDP] (H-GRKKRRQRRRPPQ[βAla]RKRSRYDP-NH2; N-terminus and C-terminus assumed)
IC50 [1, 5]: 336 µM

N=C(N)NCCC[C@H](NC(=O)CN)C(=O)N[C@@H](CCCCN)C(=O)N[C@@H](CCCCN)C(=O)N[C@@H](CCCNC(=N)N)C(=O)N[C@@H](CCCNC(=N)N)C(=O)N[C@@H](CCC(N)=O)C(=O)N[C@@H](CCCNC(=N)N)C(=O)N[C@@H](CCCNC(=N)N)C(=O)N[C@@H](CCCNC(=N)N)C(=O)N1CCC[C@H]1C(=O)N1CCC[C@H]1C(=O)N[C@@H](CCC(N)=O)C(=O)NCCC(=O)NCC(=O)N[C@@H](Cc1ccc(O)cc1)C(=O)N[C@@H](CCCNC(=N)N)C(=O)N[C@@H](Cc1ccc(O)cc1)C(=O)N[C@@H](CCCCN)C(=O)N[C@@H](CCCNC(=N)N)C(=O)N[C@@H](CC(=O)O)C(=O)N1CCC[C@H]1C(N)=O [F11P20, GRKKRRQRRRPPQ-βA-GYRYKRDP] (H-GRKKRRQRRRPPQ[βAla]GYRYKRDP-NH2; N-terminus and C-terminus assumed)
IC50 [1, 5]: 305 µM

CC(C)C[C@H](NC(=O)[C@H](CCCNC(=N)N)NC(=O)[C@H](CCCNC(=N)N)NC(=O)[C@H](CCCCN)NC(=O)[C@H](CCCCN)NC(=O)[C@@H](NC(=O)CCNC(=O)[C@H](CCC(N)=O)NC(=O)[C@@H]1CCCN1C(=O)[C@@H]1CCCN1C(=O)[C@H](CCCNC(=N)N)NC(=O)[C@H](CCCNC(=N)N)NC(=O)[C@H](CCCNC(=N)N)NC(=O)[C@H](CCC(N)=O)NC(=O)[C@H](CCCNC(=N)N)NC(=O)[C@H](CCCNC(=N)N)NC(=O)[C@H](CCCCN)NC(=O)[C@H](CCCCN)NC(=O)[C@H](CCCNC(=N)N)NC(=O)CN)C(C)C)C(=O)N[C@@H](CC(=O)O)C(=O)N1CCC[C@H]1C(N)=O [F11P21, GRKKRRQRRRPPQ-βA-VKKRRLDP] (H-GRKKRRQRRRPPQ[βAla]VKKRRLDP-NH2; N-terminus and C-terminus assumed)
IC50 [1, 5]: 668 µM

RKRSRYWP [D14P165]
phosphorylation inhibition [2]: 85%

RKRSWYWP [D15P106]
phosphorylation inhibition [2]: 82%

RKRWRYWP [D15P105]
phosphorylation inhibition [2]: 87%

B1: peptide D15P106 (RKRSWYWP) (peptide)
peptide: RKRSWYWP
inhibition of CK2-mediated phosphorylation of HPV-16 E7 (in vitro phosphorylation reaction, GST-E7 substrate) [3]: 82%

B2: peptide D14P165 (RKRSRYWP) (peptide)
peptide: RKRSRYWP
inhibition of CK2-mediated phosphorylation of HPV-16 E7 (in vitro phosphorylation reaction, GST-E7 substrate) [3]: 85%

B3: peptide D15P105 (RKRWRYWP) (peptide)
peptide: RKRWRYWP
inhibition of CK2-mediated phosphorylation of HPV-16 E7 (in vitro phosphorylation reaction, GST-E7 substrate) [3]: 87%
